# Experiments:
# Assay type in all cases: cell-based
# androgen receptor (AR) = experiment: PSA-luciferase reporter assay, DHT induced, 22RV1 cells; conditions: equivalent doses, 22RV1 cells in the presence of DHT
# Description: 22RV1 or LNCaP prostate cancer cells were used in the screening study. 22RV1 or LNCaP cell lines were stably transfected with PSA promoter-PGL4.2 luciferase reporter. DHT (25 nM) was used to stimulate androgen receptor activity for 24 h.
# (§1) Reporter cells were treated with herbal extracts at 30, 100, 300, and 1000 μg/ml for 24 h in a 37° C.-CO2 incubator. DHT (25 nM) was used to stimulate androgen receptor activity. Dexamethasone (50 nM) was used to stimulate glucocorticoid receptor activity Cells were lysed using luciferase lysis buffer after which luciferase buffer with luciferin was added to generate luminescence. Luminescence was recorded using a luminescence microplate reader.
# 22Rv1 cells = experiment: Cell growth assay, 22Rv1 prostate cancer cells; conditions: in the presence or absence of DHT and DEX
# Description: (§2) 22RV1 or LNCaP prostate cancer cells were grown in corning T75 cell culture flasks in RPMI1640 medium supplemented with 5% FBS, 50 μg/ml Kanamycin in a 37° C., 5% CO2 incubator.
# (§3) 20,000 cells in 1 ml of medium (phenol red free RPMI1640, 5% charcoal-dialysis FBS, 50 μg/ml Kanamyacin) were seeded per well of a 24-well plate and incubated in a 37° C. incubator with 5% CO2 overnight. Different concentrations of herbal extract were added to each well in order to have final concentrations from 50 μg/ml to 500 μg/ml. […] For glucocorticoid receptor overexpressed LNCaP cells, dexamethasone (50 nM) was used to stimulate glucocorticoid receptor activity. For all breast cancer cells, E2 (10 nM) was used to stimulate ER activity. Control medium without any steroid hormone was used as a control setting. After 4 days of incubation, cells were fixed and stained for 2 h with 0.5% methylene blue in 50% ethanol, followed by washing with tap water to remove unbound dye. Plates were air dried and then cells were dissolved in 1% sarkosyl (sodium lauroyl sarcosinate) by shaking at room temperature for 3 h. […] All experiments were performed in triplicate wells and were repeated at least three times.
# LNCaP cells = experiment: Cell growth assay, LNCaP prostate cancer cells
# Description: as §2, §3
# [1] = system: LNCaP-GR (GR overexpressing) cells; experiment: Cell growth assay, GR overexpressing LNCaP cells; conditions: DEX stimulated
# Description: as §3
# GR (stimulated with DEX) = molecular target: T1, GR (stimulated with DEX) (Homo sapiens, UniProt P04150); experiment: GR driven luciferase activity (DEX) in LNCaP-GR cells; conditions: LNCaP-GR luciferase reporter cells
# T1 construct: expressed in transfected cells; host or cells: LNCaP (LNCaP-GR)
# T1 sequence (P04150 whole entry): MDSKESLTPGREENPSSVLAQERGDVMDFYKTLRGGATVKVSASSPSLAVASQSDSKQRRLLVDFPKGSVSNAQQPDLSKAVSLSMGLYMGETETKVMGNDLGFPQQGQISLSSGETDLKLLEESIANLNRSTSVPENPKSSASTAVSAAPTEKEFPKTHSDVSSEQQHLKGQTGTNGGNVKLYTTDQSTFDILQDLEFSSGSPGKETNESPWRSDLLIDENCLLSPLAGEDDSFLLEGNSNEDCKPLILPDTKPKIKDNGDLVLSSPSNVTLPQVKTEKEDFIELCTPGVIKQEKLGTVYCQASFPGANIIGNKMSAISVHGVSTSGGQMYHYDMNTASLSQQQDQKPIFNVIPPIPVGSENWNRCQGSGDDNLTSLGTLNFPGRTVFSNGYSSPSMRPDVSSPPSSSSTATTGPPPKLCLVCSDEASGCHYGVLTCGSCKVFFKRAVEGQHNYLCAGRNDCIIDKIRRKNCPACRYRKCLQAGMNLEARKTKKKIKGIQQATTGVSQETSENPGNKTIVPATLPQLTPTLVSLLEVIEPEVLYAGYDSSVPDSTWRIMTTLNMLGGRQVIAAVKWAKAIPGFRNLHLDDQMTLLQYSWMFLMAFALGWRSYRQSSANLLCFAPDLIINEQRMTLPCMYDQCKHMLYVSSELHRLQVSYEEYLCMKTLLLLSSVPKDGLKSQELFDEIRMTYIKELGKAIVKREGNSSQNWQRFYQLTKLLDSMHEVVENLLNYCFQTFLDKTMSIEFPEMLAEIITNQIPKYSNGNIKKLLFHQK
# Description: Both LNCaP and GR overexpressing LNCaP cells were carrying luciferase reporters with AR response elements.
# as §1
Compound,inhibitory effect on AR mediated transcriptional response (androgen receptor (AR)),growth inhibitory effect on 22RV1 cells (in words) (22Rv1 cells),susceptibility of LNCaP cell growth to treatment (in words) (LNCaP cells; in the absence of DHT),sensitivity of LNCaP cell growth to treatment (in words) (LNCaP cells; in the presence of DHT),resistance of LNCaP-GR cell growth (in words) [1],inhibition of DEX induced transcriptional response (GR (stimulated with DEX))
"Cc1c(O)cc2c(c1O)C(=O)c1ccc(O)cc1C2=O [TMT, 1,3,6-Trihydroxy-2-methyl-9,10-anthracenedione]",very weak activity,–,–,–,–,–
"CNC(=O)c1ccc(N2C(=S)N(c3ccc(C#N)c(C(F)(F)F)c3)C(=O)C2(C)C)cc1F [Enzalutamide, reference compound]",–,resistant,not be susceptible,more sensitive,resistant,but not DEX induced transcriptional response

# From US20210196779A1, “Compositions and Methods for Treating Steroid Hormone-Related Diseases or Disorders” (YALE UNIVERSITY, priority 2018, published 2021)
